{"source": "ChEMBL document CHEMBL4387741", "about": "“Optimization of novel reversible Bruton's tyrosine kinase inhibitors identified using Tethering-fragment-based screens” (Bioorg Med Chem, 2019)", "key": {"[1]": {"target": "Tyrosine-protein kinase ABL2 (Homo sapiens) (UniProt P42684)", "sequence (P42684 whole entry, the tested form may be a part)": "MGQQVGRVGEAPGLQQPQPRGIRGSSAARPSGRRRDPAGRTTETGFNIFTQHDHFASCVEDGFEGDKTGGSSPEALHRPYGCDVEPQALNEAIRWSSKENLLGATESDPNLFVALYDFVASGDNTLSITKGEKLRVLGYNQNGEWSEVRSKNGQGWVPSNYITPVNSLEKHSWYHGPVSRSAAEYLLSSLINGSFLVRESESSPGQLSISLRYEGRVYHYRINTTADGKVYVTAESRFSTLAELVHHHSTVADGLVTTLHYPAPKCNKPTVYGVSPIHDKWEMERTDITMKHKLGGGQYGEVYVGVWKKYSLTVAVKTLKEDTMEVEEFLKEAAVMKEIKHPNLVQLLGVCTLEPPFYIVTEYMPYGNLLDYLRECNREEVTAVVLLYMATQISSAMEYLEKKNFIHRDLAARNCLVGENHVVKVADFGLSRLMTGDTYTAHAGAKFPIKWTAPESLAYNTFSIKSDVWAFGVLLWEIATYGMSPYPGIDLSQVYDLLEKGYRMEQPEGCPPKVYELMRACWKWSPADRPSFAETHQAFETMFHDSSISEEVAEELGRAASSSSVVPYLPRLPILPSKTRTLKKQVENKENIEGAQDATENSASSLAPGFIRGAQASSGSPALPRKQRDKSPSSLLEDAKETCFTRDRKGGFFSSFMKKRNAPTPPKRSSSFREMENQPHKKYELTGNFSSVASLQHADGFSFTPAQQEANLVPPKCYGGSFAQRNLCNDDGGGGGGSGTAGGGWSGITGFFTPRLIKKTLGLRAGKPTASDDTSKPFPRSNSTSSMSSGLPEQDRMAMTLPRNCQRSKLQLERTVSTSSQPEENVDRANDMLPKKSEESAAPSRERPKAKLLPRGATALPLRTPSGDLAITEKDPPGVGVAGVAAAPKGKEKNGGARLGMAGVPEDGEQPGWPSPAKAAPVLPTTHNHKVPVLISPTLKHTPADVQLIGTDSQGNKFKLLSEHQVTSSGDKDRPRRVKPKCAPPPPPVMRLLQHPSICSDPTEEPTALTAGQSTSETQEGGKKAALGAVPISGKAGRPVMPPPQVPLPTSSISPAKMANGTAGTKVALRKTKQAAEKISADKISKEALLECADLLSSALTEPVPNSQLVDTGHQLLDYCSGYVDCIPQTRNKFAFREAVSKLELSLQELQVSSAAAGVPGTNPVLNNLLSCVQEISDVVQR", "assay": "Inhibition of wild-type human ABL2 (A248 to G542 residues) expressed in bacterial expression system at 1 uM by Kinomescan method relative to control"}, "[2]": {"target": "Mitogen-activated protein kinase kinase kinase 6 (Homo sapiens) (UniProt O95382)", "assay": "Inhibition of wild-type human partial length ASK2 (M278 to R972 residues) expressed in mammalian expression system at 1 uM by Kinomescan method relative to control"}, "[3]": {"test_system": "Receptor-type tyrosine-protein kinase FLT3 (Homo sapiens), P36888 [R834Q]", "assay": "Inhibition of human partial length FLT3 R834Q mutant (V592 to Y969 residues) expressed in mammalian expression system at 1 uM by Kinomescan method relative to control"}, "[4]": {"target": "Mitogen-activated protein kinase 10 (Homo sapiens) (UniProt P53779)", "sequence (P53779 whole entry, the tested form may be a part)": "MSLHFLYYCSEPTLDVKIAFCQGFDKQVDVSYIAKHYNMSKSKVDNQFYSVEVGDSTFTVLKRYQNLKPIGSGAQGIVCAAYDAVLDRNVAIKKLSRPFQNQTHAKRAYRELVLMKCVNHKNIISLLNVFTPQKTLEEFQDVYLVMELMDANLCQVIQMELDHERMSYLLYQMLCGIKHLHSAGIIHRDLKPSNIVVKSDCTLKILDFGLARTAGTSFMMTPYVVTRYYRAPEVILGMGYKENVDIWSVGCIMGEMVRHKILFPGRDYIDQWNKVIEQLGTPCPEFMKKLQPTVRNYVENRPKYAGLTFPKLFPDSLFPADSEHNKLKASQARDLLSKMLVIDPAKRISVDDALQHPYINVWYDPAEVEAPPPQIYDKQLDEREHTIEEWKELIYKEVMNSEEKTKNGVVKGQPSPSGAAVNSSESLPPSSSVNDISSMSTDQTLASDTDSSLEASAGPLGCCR", "assay": "Inhibition of wild-type human partial length JNK3 (V28 to Q422 residues) expressed in mammalian expression system at 1 uM by Kinomescan method relative to control"}, "[5]": {"target": "Phosphorylase b kinase gamma catalytic chain, liver/testis isoform (Homo sapiens) (UniProt P15735)", "sequence (P15735 whole entry, the tested form may be a part, canonical isoform)": "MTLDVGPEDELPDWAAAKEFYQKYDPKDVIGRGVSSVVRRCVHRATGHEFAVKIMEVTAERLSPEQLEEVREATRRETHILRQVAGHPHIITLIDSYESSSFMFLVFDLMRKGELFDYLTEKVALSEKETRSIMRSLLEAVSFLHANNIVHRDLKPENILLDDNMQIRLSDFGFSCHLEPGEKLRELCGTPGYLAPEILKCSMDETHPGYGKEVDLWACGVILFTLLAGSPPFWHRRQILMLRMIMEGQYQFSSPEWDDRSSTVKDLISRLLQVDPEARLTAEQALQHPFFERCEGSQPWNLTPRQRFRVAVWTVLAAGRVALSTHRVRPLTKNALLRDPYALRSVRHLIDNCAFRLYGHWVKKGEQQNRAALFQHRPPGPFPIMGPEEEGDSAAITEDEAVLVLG", "assay": "Inhibition of wild-type human partial length PHKG2 (M1 to W300 residues) expressed in bacterial expression system at 1 uM by Kinomescan method relative to control"}, "[6]": {"target": "Ribosomal protein S6 kinase alpha-6 (Homo sapiens) (UniProt Q9UK32)", "assay": "Inhibition of wild-type human partial length N-terminal RSK4 kinase domain 1 (M1 to E397 residues) expressed in mammalian expression system at 1 uM by Kinomescan method relative to control"}, "[7]": {"target": "Serine/threonine-protein kinase TNNI3K (Homo sapiens) (UniProt Q59H18)", "sequence (Q59H18 whole entry, the tested form may be a part)": "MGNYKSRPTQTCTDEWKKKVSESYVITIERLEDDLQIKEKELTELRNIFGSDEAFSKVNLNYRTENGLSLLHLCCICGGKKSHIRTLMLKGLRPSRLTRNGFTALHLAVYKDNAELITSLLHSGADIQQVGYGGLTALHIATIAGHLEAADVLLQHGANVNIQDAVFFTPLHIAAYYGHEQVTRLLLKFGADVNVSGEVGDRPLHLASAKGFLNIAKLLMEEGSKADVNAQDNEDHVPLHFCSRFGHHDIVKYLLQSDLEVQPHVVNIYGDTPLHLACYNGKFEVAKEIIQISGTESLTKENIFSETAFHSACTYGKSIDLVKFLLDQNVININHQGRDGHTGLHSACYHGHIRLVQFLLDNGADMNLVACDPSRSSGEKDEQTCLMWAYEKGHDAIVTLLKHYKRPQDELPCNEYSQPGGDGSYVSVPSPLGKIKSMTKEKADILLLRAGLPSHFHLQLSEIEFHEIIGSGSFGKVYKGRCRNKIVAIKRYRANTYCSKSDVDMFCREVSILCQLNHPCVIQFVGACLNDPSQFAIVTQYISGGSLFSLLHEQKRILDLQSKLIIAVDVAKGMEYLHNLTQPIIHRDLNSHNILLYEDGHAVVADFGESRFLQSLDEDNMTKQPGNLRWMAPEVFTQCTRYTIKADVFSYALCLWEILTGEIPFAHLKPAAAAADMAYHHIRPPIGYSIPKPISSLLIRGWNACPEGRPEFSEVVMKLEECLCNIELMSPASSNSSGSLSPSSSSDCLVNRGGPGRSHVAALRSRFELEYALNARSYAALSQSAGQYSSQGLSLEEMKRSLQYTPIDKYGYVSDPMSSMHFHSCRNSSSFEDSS", "assay": "Inhibition of wild-type human full length TNNI3K (M1 to S835 residues) expressed in bacterial expression system at 1 uM by Kinomescan method relative to control"}, "[8]": {"target": "Calcium/calmodulin-dependent protein kinase type 1G (Homo sapiens) (UniProt Q96NX5)", "assay": "Inhibition of wild-type human partial length CAMK1G (M1 to A342 residues) expressed in bacterial expression system at 10 uM by Kinomescan method relative to control"}, "[9]": {"target": "Insulin receptor-related protein (Homo sapiens) (UniProt P14616)", "sequence (P14616 27-742 limits assumed)": "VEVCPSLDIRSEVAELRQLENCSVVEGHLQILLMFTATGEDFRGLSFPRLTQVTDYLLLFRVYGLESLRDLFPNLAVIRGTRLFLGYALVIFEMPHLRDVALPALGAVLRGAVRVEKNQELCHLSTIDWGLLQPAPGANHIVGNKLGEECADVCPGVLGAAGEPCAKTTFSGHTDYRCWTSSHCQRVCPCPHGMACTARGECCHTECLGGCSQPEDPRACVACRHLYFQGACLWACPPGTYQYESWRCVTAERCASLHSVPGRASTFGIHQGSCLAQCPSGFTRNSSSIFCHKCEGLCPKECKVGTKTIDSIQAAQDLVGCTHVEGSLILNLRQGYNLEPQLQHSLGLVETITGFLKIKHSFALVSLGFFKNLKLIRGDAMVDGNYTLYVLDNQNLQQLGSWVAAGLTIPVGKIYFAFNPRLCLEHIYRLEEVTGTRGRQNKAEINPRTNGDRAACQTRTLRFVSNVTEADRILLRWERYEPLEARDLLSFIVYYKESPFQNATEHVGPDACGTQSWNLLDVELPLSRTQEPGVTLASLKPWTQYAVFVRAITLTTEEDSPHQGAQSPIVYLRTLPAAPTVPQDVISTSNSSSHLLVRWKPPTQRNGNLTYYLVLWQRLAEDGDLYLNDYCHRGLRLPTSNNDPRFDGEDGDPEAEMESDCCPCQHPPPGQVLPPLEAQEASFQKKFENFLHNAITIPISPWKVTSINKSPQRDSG", "sequence (P14616 747-1297 limits assumed)": "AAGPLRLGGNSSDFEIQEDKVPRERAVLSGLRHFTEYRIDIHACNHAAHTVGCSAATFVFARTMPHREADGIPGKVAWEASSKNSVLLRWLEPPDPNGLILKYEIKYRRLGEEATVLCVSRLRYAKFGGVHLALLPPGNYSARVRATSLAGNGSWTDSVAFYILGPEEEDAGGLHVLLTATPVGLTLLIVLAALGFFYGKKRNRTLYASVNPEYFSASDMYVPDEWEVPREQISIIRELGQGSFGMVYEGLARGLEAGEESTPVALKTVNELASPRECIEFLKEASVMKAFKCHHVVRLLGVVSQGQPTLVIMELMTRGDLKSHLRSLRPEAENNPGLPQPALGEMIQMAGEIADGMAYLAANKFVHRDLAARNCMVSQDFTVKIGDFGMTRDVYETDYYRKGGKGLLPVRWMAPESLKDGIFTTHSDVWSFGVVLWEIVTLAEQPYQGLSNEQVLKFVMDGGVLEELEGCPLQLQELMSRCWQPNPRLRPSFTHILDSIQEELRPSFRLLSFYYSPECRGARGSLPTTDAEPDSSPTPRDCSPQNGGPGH", "assay": "Inhibition of wild-type human partial length INSRR (R950 to E1278 residues) expressed in bacterial expression system at 10 uM by Kinomescan method relative to control"}, "[10]": {"target": "MAP/microtubule affinity-regulating kinase 3 (Homo sapiens) (UniProt P27448)", "assay": "Inhibition of wild-type human full length MARK3 (M1 to L729 residues) expressed in bacterial expression system at 10 uM by Kinomescan method relative to control"}, "[11]": {"target": "Cyclin-dependent kinase 14 (Homo sapiens) (UniProt O94921)", "sequence (O94921 whole entry, the tested form may be a part)": "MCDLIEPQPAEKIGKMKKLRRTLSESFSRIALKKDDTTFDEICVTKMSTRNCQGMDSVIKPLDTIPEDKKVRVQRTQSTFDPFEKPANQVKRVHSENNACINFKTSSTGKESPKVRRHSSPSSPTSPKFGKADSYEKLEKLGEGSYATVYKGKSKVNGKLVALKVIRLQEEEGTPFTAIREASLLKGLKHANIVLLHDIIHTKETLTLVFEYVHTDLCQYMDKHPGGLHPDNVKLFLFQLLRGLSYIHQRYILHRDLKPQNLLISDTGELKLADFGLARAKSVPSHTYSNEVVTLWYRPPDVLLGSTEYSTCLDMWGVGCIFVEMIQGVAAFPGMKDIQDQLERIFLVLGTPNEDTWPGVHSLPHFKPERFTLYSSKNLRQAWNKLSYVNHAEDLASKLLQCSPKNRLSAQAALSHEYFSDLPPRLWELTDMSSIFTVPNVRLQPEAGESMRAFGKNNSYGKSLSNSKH", "assay": "Inhibition of wild-type human full length PFTK1 (M1 to H451 residues) expressed in bacterial expression system at 10 uM by Kinomescan method relative to control"}}}
{"smiles": "O=C(Nc1cccc([C@@H]2CN(c3ncnc4[nH]ccc34)CCN2CCO)c1)Nc1c(F)cccc1N1CCCC1", "values": [{"measurement": "inhibition", "setting": "[1]", "result": 97, "unit": "%"}, {"measurement": "inhibition", "setting": "[2]", "result": 81, "unit": "%"}, {"measurement": "inhibition", "setting": "[3]", "result": 47, "unit": "%"}, {"measurement": "inhibition", "setting": "[4]", "result": 97, "unit": "%"}, {"measurement": "inhibition", "setting": "[5]", "result": 100, "unit": "%"}, {"measurement": "inhibition", "setting": "[6]", "result": 89, "unit": "%"}, {"measurement": "inhibition", "setting": "[7]", "result": 100, "unit": "%"}]}
{"smiles": "O=C(Nc1cccc([C@H]2CCCN(c3ncnc4[nH]ccc34)C2)c1)Nc1ccccc1N1CCCC1", "values": [{"measurement": "inhibition", "setting": "[8]", "result": 85, "unit": "%"}, {"measurement": "inhibition", "setting": "[9]", "result": 100, "unit": "%"}, {"measurement": "inhibition", "setting": "[10]", "result": 100, "unit": "%"}, {"measurement": "inhibition", "setting": "[11]", "result": 61, "unit": "%"}]}
